Experimental data from patent US20220315598A1, “Oxygen-containing Heterocyclic Compound, Preparation Method Therefor and Use Thereof” (SHANGHAI YINGLI PHARMACEUTICAL CO., LTD, priority 2019, published 2022).

Tests used:
[1] = target: T1, CYP2C9 (Homo sapiens, UniProt P11712); experiment: Inhibition of metabolic enzymes in vitro, human liver microsomes, CYP2C9; type: in vitro ADME; settings: substrate Diclofenac
T1 construct: human liver microsomes and CYP enzyme-specific substrates were used; from tissue; host or cells: human liver microsomes
Protocol: (§1) Test purpose: In this test, human liver microsomes and CYP enzyme-specific substrates were used to test the effects of different concentrations of compounds to be tested on metabolic rates of enzyme-specific substrates, so as to determine inhibitory effects of these compounds on CYP enzymes in human liver microsomes.
(§2) 1. preparing […] potassium phosphate buffer (pH 7.4);
(§3) 2. preparing stock solutions of compounds to be tested (10 mM), NADPH solutions (8 mM, which was 4 times the final concentration), positive compound stock solutions, substrate stock solutions and human liver microsome solutions (see the table below);
(§4) 3. preparing solutions of compounds to be tested: dissolving 8 μL of 10 mM stock solution of compounds to be tested in 12 μL of acetonitrile, and then using a mixed solution of 40% DMSO and 60% acetonitrile to perform a 1:3 gradient dilution as follows (wherein the concentration was 400 times the final concentration): 4 mM, 1.333 mM, 0.444 mM, 0.148 mM, 0.0494 mM, 0.0165 mM, 0.00549 mM and 0 mM.
(§5) 4. preparing positive control inhibitor solutions: dissolving 8 μL of positive control inhibitor stock solutions in 12 μL of acetonitrile, and then using a mixed solution of 40% DMSO and 60% acetonitrile to perform a 1:3 gradient dilution as follows (wherein the concentration was 400 times the final concentration, which was described in the table below); […]

[2] = target: CYP2D6 (Homo sapiens, UniProt P10635); experiment: Inhibition of metabolic enzymes in vitro, human liver microsomes, CYP2D6
Protocol: as §1, §2, §3, §4, §5

[3] = target: T2, CYP2C19 (Homo sapiens, UniProt P33261); experiment: Inhibition of metabolic enzymes in vitro, human liver microsomes, CYP2C19; type: in vitro ADME; settings: substrate S-Mephenytoin
T2 construct: human liver microsomes and CYP enzyme-specific substrates were used; from tissue; host or cells: human liver microsomes
Protocol: as §1, §2, §3, §4, §5

[4] = target: CYP3A4 (Homo sapiens, UniProt P08684); experiment: Inhibition of metabolic enzymes in vitro, human liver microsomes, CYP3A4
Protocol: as §1, §2, §3
4. preparing positive control inhibitor solutions: dissolving 8 μL of positive control inhibitor stock solutions in 12 μL of acetonitrile, and then using a mixed solution of 40% DMSO and 60% acetonitrile to perform a 1:3 gradient dilution as follows (wherein the concentration was 400 times the final concentration, which was described in the table below);
6. preparing mixed solutions of positive control compounds and human liver microsomes: adding 200 μL of 0.2 mg/mL human liver microsomes to a 96-well plate, and adding 1 μL of diluted solutions of positive control compounds;
7. dispensing 30 μL of mixed solutions of the compounds and human liver microsomes to a 96-well plate, and then adding […] substrate solutions: adding […] preheated NADPH solutions to a preheated reaction plate and mixing evenly to start the reaction;
8. incubating the reaction plate at 37° C.; 3A4 was reacted for 5 minutes; 1A2, 2C9 and 2D6 were reacted for 10 minutes; 2C19 was reacted for 45 minutes;
9, after completion of the addition, adding 120 μL of acetonitrile containing internal standard to terminate the reaction: after terminating the reaction, shaking the sample on a shaker at 600 rpm/min for 10 minutes and centrifuging same at 3220×g for 15 minutes; after centrifugation, taking out 50 μL of supernatant and mixing same with 50 μL of water for analysis by LC-MS/MS.
According to the following equation, the data was plotted and fitted using a dose-response model in GraphPad Prism software to calculate IC50.
Y=Bottom+(Top−Bottom)/(1+10^((Log IC50−X)×HillSlope))
X represents the logarithm concentration of the inhibitor, and Y represents the relative activity of the enzyme at a certain inhibitor concentration (relative to the condition without inhibitor).

[5] = target: T3, CYP1A2 (Homo sapiens, UniProt P05177); experiment: Inhibition of metabolic enzymes in vitro, human liver microsomes, CYP1A2; type: in vitro ADME; settings: substrate Phenacetin
T3 construct: human liver microsomes and CYP enzyme-specific substrates were used; from tissue; host or cells: human liver microsomes
T3 sequence (P05177 1-516): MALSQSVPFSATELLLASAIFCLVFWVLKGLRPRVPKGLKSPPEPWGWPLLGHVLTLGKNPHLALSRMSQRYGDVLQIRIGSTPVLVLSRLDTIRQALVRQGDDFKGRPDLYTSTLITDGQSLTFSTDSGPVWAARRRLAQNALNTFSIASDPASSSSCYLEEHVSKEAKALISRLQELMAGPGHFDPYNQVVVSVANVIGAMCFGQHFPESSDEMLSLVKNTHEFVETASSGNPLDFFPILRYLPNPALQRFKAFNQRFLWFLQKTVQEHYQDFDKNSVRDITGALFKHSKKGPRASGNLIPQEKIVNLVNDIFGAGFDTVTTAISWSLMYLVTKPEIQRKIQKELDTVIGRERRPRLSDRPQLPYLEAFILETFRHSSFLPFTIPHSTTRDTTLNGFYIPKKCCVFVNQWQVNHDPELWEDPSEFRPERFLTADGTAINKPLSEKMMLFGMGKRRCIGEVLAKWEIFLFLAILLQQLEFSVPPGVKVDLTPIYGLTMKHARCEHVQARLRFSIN
Protocol: as §1, §2, §3, §4, §5

[6] = IC50 (μM) CYP3A4 (Midazolam), substrate Midazolam
[7] = IC50 (μM) CYP3A4 (Testosterone), substrate Testosterone

Sequence of CYP3A4 (P08684 whole entry): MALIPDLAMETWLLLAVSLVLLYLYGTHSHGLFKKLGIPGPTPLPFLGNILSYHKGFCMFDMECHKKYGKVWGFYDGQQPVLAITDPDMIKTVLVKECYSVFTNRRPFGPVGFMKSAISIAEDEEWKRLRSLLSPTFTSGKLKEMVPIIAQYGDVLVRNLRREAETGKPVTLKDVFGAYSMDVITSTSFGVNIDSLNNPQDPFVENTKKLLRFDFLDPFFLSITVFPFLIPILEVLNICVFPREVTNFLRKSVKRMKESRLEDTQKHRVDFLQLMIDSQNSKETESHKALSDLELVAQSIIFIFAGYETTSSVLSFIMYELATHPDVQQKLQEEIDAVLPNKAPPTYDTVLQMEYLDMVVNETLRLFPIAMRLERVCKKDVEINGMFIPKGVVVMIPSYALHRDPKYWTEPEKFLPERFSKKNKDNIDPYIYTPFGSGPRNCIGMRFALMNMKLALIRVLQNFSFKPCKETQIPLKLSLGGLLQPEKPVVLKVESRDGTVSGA
Sequence of CYP2D6 (P10635 whole entry): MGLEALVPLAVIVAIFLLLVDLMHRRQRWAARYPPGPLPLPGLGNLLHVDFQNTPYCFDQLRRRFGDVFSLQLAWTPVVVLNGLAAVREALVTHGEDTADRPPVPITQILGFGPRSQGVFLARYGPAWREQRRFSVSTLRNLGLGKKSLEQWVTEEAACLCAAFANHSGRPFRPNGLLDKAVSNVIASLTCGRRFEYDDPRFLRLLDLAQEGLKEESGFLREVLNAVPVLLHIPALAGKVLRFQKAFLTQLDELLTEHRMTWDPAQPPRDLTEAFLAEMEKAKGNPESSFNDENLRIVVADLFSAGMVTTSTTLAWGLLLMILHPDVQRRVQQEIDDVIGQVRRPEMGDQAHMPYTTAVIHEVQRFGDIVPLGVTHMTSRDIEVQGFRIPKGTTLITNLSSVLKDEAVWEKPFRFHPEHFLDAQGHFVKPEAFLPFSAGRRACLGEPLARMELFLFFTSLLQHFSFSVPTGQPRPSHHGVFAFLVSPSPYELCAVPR
T1 sequence (P11712 whole entry): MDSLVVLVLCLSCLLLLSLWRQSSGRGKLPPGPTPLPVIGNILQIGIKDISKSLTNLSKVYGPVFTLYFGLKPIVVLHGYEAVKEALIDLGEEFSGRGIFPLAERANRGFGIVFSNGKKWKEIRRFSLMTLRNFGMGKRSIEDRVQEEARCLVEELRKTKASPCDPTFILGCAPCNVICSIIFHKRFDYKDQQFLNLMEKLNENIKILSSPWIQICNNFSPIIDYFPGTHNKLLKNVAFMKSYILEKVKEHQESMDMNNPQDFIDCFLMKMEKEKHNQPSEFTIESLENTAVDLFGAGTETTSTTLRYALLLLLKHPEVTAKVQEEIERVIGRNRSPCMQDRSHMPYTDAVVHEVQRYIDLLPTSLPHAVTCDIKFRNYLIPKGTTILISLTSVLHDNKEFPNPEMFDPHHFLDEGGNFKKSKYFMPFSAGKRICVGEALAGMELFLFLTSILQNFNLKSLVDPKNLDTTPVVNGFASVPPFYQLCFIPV
T2 sequence (P33261 whole entry): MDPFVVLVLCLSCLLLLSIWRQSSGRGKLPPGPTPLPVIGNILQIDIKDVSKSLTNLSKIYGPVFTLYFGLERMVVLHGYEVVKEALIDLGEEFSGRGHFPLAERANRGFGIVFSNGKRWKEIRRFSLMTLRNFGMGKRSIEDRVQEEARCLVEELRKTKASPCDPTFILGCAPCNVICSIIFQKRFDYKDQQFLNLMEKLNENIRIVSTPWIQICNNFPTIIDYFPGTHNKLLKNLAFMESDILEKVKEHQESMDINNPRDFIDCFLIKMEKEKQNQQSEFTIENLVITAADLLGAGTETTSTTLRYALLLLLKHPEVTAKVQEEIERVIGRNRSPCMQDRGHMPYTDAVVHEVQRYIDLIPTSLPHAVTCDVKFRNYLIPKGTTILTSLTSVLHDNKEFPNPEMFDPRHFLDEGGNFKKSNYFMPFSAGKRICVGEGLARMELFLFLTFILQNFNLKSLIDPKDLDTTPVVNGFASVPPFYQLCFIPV

Row | SMILES | IC50 [1] [µM] | IC50 [2] [µM] | IC50 [3] [µM] | IC50 [4, 6] [µM] | IC50 [4, 7] [µM] | IC50 [5] [µM]
1 | C=CC(=O)N1CCN(c2nc(=O)n(-c3c(C)ccnc3C(C)C)c3nc(-c4c(O)cccc4F)c(F)cc23)[C@@H](C)C1 (atropisomer, axis not shown) [AMG-510] | > 10 | > 10 | > 10 | 4.46 | > 10 | > 10
2 | C=C(F)C(=O)N1CCN(c2nc(OC[C@@H]3CCCN3C)nc3c2CCN(c2cccc4cccc(Cl)c24)C3)C[C@@H]1CC#N [MRTX849] | 2.29 | > 10 | > 10 | 5.92 | 7.85 | > 10
